From US20070185116A1, “Bicyclic compounds” (TANABE SEIYAKU CO., LTD., priority 2004, published 2007)

What was measured:
[1] = system: rhythmic bladder contractions induced by substance P; assay: Inhibitory effect on the rhythmic bladder contractions induced by substance P in anesthetized rats; assay type: in vivo, rat; conditions: 0.25 mg/kg, intravenous administration; urethane-anesthetized female Sprague-Dawley rats; observed for 35 minutes
[2] = system: isolated rabbit urinary bladder; assay: Relaxation effect on potassium-induced contraction of isolated rabbit urinary bladder; assay type: cell-based; conditions: Oryctolagus cuniculus; strips pre-contracted with high-K+ (30 mM) Krebs solution; relaxation as percentage of maximum relaxation by 10^-4 M papaverine; read-out: IC50 value (50% relaxation concentration)
Method: [Relaxation Effect on Potassium-Induced Contraction of Isolated Rabbit Urinary Bladder]
Urinary bladder was isolated from Male NZW rabbits (body weight: 2.0-3.5 kg) and immersed in ice-cold Krebs-bicarbonate solution (in mM: 118 NaCl, 4.7 KCl, 2.55 CaCl2, 1.18 MgSO4, 1.18 KH2PO4, 24.88 NaHCO3 and 11.1 glucose). The urinary bladder was cut into longitudinal strips (5 mm length, 3-4 mm width) after mucosal layer was removed.
Preparations were mounted in organ baths containing 10 ml of Krebs solution maintained at 37° C. and gassed with 95% O2/5% CO2. Accordingly, preparations were stretched with an initial tension of 2.0±1.0 g, and changes in isometric tension were measured by force-displacement transducer. The preparations were pre-contracted by changing organ-bath solution into high-K^+ (30 mM) Krebs solution (in mM: 118 NaCl, […], 2.55 CaCl2, 1.18 MgSO4, 1.18 KH2PO4, 24.88 NaHCO3 and 11.1 glucose).
After stable tension was obtained, compounds were added into organ baths cumulatively (10^−8 M-10^−4 M). The effects of compounds were expressed as a percentage of the maximum relaxation produced by 10^−4 M papaverine as 100%. 50% relaxation concentration (IC50) was calculated and IC50 value range (μM) of compounds of the present invention was shown in the following Table 1 with a rank of A, B or C.
These ranges are as mentioned below.

| Structure (SMILES) | 100% inhibition time: Time (min) during which the frequency of the rhythmic contraction had been completely inhibited [1] | IC50 [2] |
| --- | --- | --- |
| Cc1ccc(-c2ncc(Cl)cc2-c2ccc(C(N)=O)cc2)cn1 [Example 1] | 20.5 min | 500 to 1000 nM |
| Cc1ccccc1-c1ncc(Cl)cc1-c1ccc(C(N)=O)cc1 [Example 43] | >35 min | 500 to 1000 nM |
